Where two headings read alike, the source gives them in different places.
Legend:
[1] = for content of (Z)-montelukast in isolated montelukast: after 3 hours reflux in toluene, precipitation with heptane
[2] = Light exposure of methanolic montelukast solution to sunshine under inert argon, (Z)-isomer content by HPLC; type: physicochemical; conditions: methanol solution, argon atmosphere
[3] = Stress test: methanolic solution of montelukast exposed to sunshine and air oxygen, HPLC monitoring; type: physicochemical
Procedure: The solution in glass apparatus was exposed to the influence of sunshine and air oxygen and samples were take repeatedly (at the times of 40 minutes, 1 day, 4 days and 14 days) (20 μl of the mixture further diluted by methanol to the volume of 1 ml) for HPLC analysis in the isocratic mode.
HPLC chromatograms were measured with the EliteLachrom device of Hitachi. For the analyses a column filled with the stationary phase of RP-18e was used, column temperature 20° C. As the mobile phase a mixture of acetonitrile (80%) and a 0.1 M aqueous solution of ammonium formate, treated with formic acid to pH 3.6 (20%), was used. The measurements were performed in the isocratic mode with the mobile phase flow rate of 1.5 ml/min. Spectrophotometric detection at the wavelength of 234 nm was used. For the preparation of the samples to be analyzed methanol was used as the solvent, 10-20 μl of the prepared solution were used for the injection.

| Structure (SMILES) | content of (Z)-montelukast in isolated montelukast [1] | content of (Z)-montelukast in isolated montelukast ([1]; listed as (Z)-isomer) | content of (Z)-montelukast, initial mixture of isomers ([1]; before reflux, toluene solution) [%] | content of (Z)-montelukast after 30 minutes of reflux ([1]; toluene, without light) [%] | content of (Z)-montelukast after 60 minutes of reflux ([1]; toluene, without light) [%] | content of the (Z)-isomer according to HPLC after exposure to sunshine ([2]; sunshine 1.5 hours (Example 7)) [%] | content of the (Z)-isomer according to HPLC after exposure to sunshine ([2]; sunshine 1.5 hours (Example 7), listed as Montelukast) | content of the (Z)-isomer according to HPLC after exposure to sunshine ([2]; sunshine 4 days (Example 9)) | rate of transformation of montelukast to (Z)-montelukast sulfoxide (XII) ([3]; light and oxygen induced degradation) | rate of transformation of montelukast (I) to (Z)-montelukast (V) ([3]; methanolic solution, sunshine and air oxygen) | sensitivity of the substance to light and air oxygen ([3]; methanolic solution, sunshine and air oxygen, HPLC isocratic) |
| --- | --- | --- | --- | --- | --- | --- | --- | --- | --- | --- | --- |
| CC(C)(O)c1ccccc1CC[C@@H](SCC1(CC(=O)[O-])CC1)c1cccc(/C=C\c2ccc3ccc(Cl)cc3n2)c1.[Na+] [(Z)-montelukast, sodium salt of 1-[[[(1R)-1-[3-[(1Z)-2-(7-chloro-2-quinolinyl)ethenyl]phenyl]-3-[2-(1-hydroxy-1-methylethyl)phenyl]propyl]thio]methyl]cyclopropane acetic acid] | below 0.1% | less than 0.1% | 11 | 5.6 | 2.7 | – | – | – | – | – | – |
| CC(C)(O)c1ccccc1CC[C@@H](SCC1(CC(=O)[O-])CC1)c1cccc(/C=C/c2ccc3ccc(Cl)cc3n2)c1.[Na+] [montelukast, sodium salt of [R-(E)]-1-[[[1-[3-[2-(7-chloro-2-quinolinyl)ethenyl]phenyl]-3-[2-(1-hydroxy-1-methylethyl)phenyl]propyl]thio]-methyl]cyclopropane acetic acid] | – | – | – | – | – | 11 | approximately 11% | approx. 73% | relatively slow | unexpectedly fast | high sensitivity |

— patent US20110034692A1 (ZENTIVA, K.S., priority 2008, published 2011)
